Data: patent publication US20260138965A1, “CRYSTALLINE FORMS OF A TYK2 INHIBITOR AND USES THEREOF” (Alumis Inc., priority 2022, published 2026)
≈ marks a conversion by molar mass, not a printed value.

Columns and labels:
Type in all cases: physicochemical
[1] = Solubility of crystalline Form 1 in aqueous and biorelevant media
[2] = Solubility of crystalline Form 1 in organic solvents; settings: organic solvent or mixture
[3] = Solid form chemical and physical stability

- solubility ([1]; in FaSSIF): 1 to 2 µg/mL (≈ 2.34 to 4.69 µM)
- solubility ([1]; in FeSSIF): 30 to 50 µg/mL (≈ 70.3 to 117 µM)
- solubility ([1]; simulated gastric fluid, in SGF): 3970 to 4280 µg/mL (≈ 9310 to 10000 µM)
- solubility ([2]; in MeOH): < 3000 µg/mL
- solubility ([2]; in MeOH/DCM (1/1)): > 43000 µg/mL
- solubility ([2]; in THF): < 17000 µg/mL
- solubility ([2]; in acetone): < 3000 µg/mL
- solubility ([2]; in acetonitrile): < 1000 µg/mL
- solubility ([2]; in ethanol): < 1000 µg/mL
- solubility ([2]; in ethyl acetate): < 1000 µg/mL
- solubility ([2]; in heptane): < 1000 µg/mL
- solubility ([2]; in isopropyl alcohol): < 1000 µg/mL
- solubility ([2]; in methyl t-butyl ether): < 1000 µg/mL
- time chemically and physically stable ([3]; 40° C./75% RH): at least 10 days
- time chemically and physically stable ([3]; 60° C.): at least 10 days
Structure (SMILES): [2H]C([2H])([2H])CC(=O)c1cnc(NC(=O)C2CC2)cc1Nc1cccc(-c2ncn(C([2H])([2H])[2H])n2)c1OC [Form 1, N-(4-((2-methoxy-3-(1-(methyl-d3)-1H-1,2,4-triazol-3-yl)phenyl)amino)-5-(propanoyl-3,3,3-d3)pyridin-2-yl) cyclopropanecarboxamide]
